This note sets out measurements from ChEMBL document CHEMBL3507680, “University of Dundee, Gates Library screen for HepG2 cell viability”.

The structures appear in SMILES notation.

This data set in a line: Human HepG2 cell viability assay in 384 well format. On the set-up: dose 125 nL, time 70.5 hour; cytotoxicity at 70.5 h: concentration not given beside the values. Type of data set: toxicity, cell-based. To be noted: HepG2 cells, read-out: Inhibition.
`CNC(=O)[C@@H]1C[C@H]2CN(C(=O)c3ccccn3)C[C@H]2N1C(C)C`: the cytotoxicity at 70.5 h is 15.1%.
On to `COC(=O)C(CO)NC(=O)c1cn(Cc2ccccc2F)nn1` (centres undefined), for which the cytotoxicity at 70.5 h is -8.74%.
Turning to `Cc1cc(C2CCCN2C(=O)COc2ccc(CC#N)cc2)no1` (centres undefined), the cytotoxicity at 70.5 h was -7.35%.
As for `Cc1cn(CC(=O)NC2CCN(C(=O)C3CC3)CC2)c2ccccc12`, the cytotoxicity at 70.5 h is -9.4%.
In the case of `FC(F)Oc1ccc(CNCc2cc(Cl)c3c(c2)OCO3)cc1`, the cytotoxicity at 70.5 h was -5.5%.
Consider `COCC(=O)NCCSCCOc1cccc(Br)c1`, for which the cytotoxicity at 70.5 h was 32%.
Consider `O=C1CN(C(=O)CNC(CC(F)(F)F)c2ccc(F)cc2)CCN1` (centres undefined), for which the cytotoxicity at 70.5 h is -55.7%.
With `NC(=O)c1cc(-c2cccc(C(=O)O)c2)cs1` the figure was -15.4%.
Regarding `NC(=O)CC1CCN(C(=O)c2cnc(-c3ccccc3F)s2)CC1`, the cytotoxicity at 70.5 h was -22.8%.
With `CSCCc1c(-c2ccccc2)ncn1CC(C)(C)N1CCCC1`, the cytotoxicity at 70.5 h is -10.9%.
Take `COc1c(C2CCCN2C(=O)c2cnc[nH]2)c(C)nn1C` (centres undefined): the cytotoxicity at 70.5 h was -2.57%.
Then `O=C(c1cccc2cc[nH]c12)N1CCC2(CCOC2)C1` (centres undefined), with 1.91%; and `O=C(NCc1nc(NC2CCCC2)c2cc(Cl)ccc2n1)c1ccoc1`, with 5.65%; and `CN(CC(C)(C)O)C1CCCN(Cc2noc(C3CC3)n2)C1` (centres undefined), with 41.7%.
Then `CC(C)C1CN(S(=O)(=O)c2cccc(C#N)c2)CCS1` (centres undefined), with 8.4%; and `COc1cccc(N2CCN(CC[C@H](O)c3ccccc3)CC2=O)c1`, with -10.7%.
With `COc1ccc(CN2CCn3c(C(=O)N(C)C)cnc3C2)cc1` the figure was -3.13%; with `CCn1nc(C)c(NC(=O)CCn2ncc3cc(C)ccc32)c1C`, 13.9%; with `CC(C)Cc1noc(CNc2ccccc2CC(=O)N(C)C)n1`, -3.15%.
As for `CN(C)c1ccc(C(O)CNS(=O)(=O)C2CC2)cc1` (centres undefined), the cytotoxicity at 70.5 h was 10.1%.
As to `COc1nn(C)cc1C(=O)NCC(=O)NCc1ccccn1`, the cytotoxicity at 70.5 h is -11%.
Regarding `N#Cc1nccnc1N1CCC(Cc2ccccc2)C1` (centres undefined), the cytotoxicity at 70.5 h is -3.44%.
On to `CN(C)C(CNC(=O)c1ncoc1-c1ccccc1)c1ccsc1` (centres undefined), for which the cytotoxicity at 70.5 h is -11.1%.
As to `Cc1nn(Cn2ccc(C(=O)N3CCCC(C)C3)n2)c(C)c1Cl` (centres undefined), the cytotoxicity at 70.5 h is -5.65%.
On to `Cc1ccc(NC(=O)c2ccc(N3CCCCC3)nn2)c(Cl)c1`, for which the cytotoxicity at 70.5 h is 3.33%.
Take `COc1ccccc1CC(=O)N1CCC(NCc2ccc(C)o2)CC1`: the cytotoxicity at 70.5 h was -11.2%.
With `CC(C)[C@H]1CN(Cc2nccn2C)C[C@@H]1NC(=O)COCC(N)=O`, the cytotoxicity at 70.5 h is -9.51%.
Then `CN(Cc1ccc(C(=O)NCC2COCCO2)c(=O)[nH]1)CC(C)(C)C` (centres undefined), with 6.27%; and `CC(C)Oc1nnc(SCC(=O)NCC(=O)N2CCCC2)s1`, with -10.4%.
Take `Cn1ccnc1SCCNc1nccc(C(F)(F)F)n1`: the cytotoxicity at 70.5 h came to 16%.
With `Cc1nc(CN2CCOCC2c2[nH]ncc2C)cs1` (centres undefined) the figure was 1.5%; with `c1cncc(CO[C@H]2CC[C@H]3[C@@H]2OCCN3C2CCOCC2)c1`, -2.22%.
As to `Cn1ccc(C2CCCCN2C(=O)c2cccc(-n3cccn3)c2)n1` (centres undefined), the cytotoxicity at 70.5 h came to 10.7%.
`OC[C@@H](O)CN(CCC(F)(F)F)c1ncccn1`: the cytotoxicity at 70.5 h is 5.67%.
On to `Nc1nc(N)c2c(n1)OC1(CCCN(Cc3nccs3)CC1)C2` (centres undefined), for which the cytotoxicity at 70.5 h was -9.72%.
Then `NC(=O)CN1CCC(NC(=O)COc2ccc(Cl)c(Cl)c2)CC1`, with -2.35%.
Consider `O=C(c1ccc(-c2ccccc2)[nH]c1=O)N1CCCn2ncnc21`, for which the cytotoxicity at 70.5 h was -9.78%.
With `COc1ccc(N2CCN(C(=O)Cn3nc(C)c(Cl)c3C)CC2)cc1`, the cytotoxicity at 70.5 h was 4.1%.
Regarding `COCCSc1ccc(C(C)NC(=O)Nc2cccnc2)cc1` (centres undefined), the cytotoxicity at 70.5 h is -4.37%.
With `Cc1n[nH]c(C2CN(C(=O)c3scnc3C)CCO2)n1` (centres undefined) the figure was -7.66%; with `COC(=O)CC1CCN(C(=O)c2ccccc2-n2nnnc2C)CC1`, -12.6%; with `O=C(Nc1cc(-c2ccncc2)no1)C1CC1`, -10.1%.
On to `COc1ccc(C)cc1C(C(=O)O)N1CCN(Cc2ccccn2)CC1` (centres undefined), for which the cytotoxicity at 70.5 h came to 3.54%.
As to `Cc1ccc2cnn(CCC(=O)NCc3c(C)nn(C)c3C)c2c1`, the cytotoxicity at 70.5 h was -6.87%.
Turning to `CC(C)(C)OC(=O)N1CCN(c2cccnc2)CC1C(=O)O` (centres undefined), the cytotoxicity at 70.5 h was -0.358%.
As for `CCN(CC)CCN(C)Cc1cn(C)nc1-c1ccc2c(c1)OCCO2`, the cytotoxicity at 70.5 h was 23.5%.
Then `CCC[C@H]1CN(Cc2ccc3c(c2)OCCO3)C[C@@H]1NC(=O)COC`, with 3.4%; and `OCC1CCCN1c1cc(NCc2ccc(Cl)s2)ncn1` (centres undefined), with -2.35%; and `CCOc1ncccc1NC(=O)NC1CCN(C(=O)C2CC2)CC1`, with 3.99%.
With `CCN1CCc2[nH]cnc2C12CCN(c1ccc(Cl)c(C(=O)O)n1)CC2` the figure was -2.9%; with `O=C1CCC(C(=O)N2CCOC(Cc3cccc4ccccc34)C2)=NN1` (centres undefined), 18.7%; with `Cc1cnc(N2CCCn3c(nnc3Cn3cccn3)C2)nc1`, 10.6%.
Then `Cc1cnc(C(=O)N2CCc3ncnc(-c4cnn(C)c4)c3CC2)cn1`, with 0.39%; and `Cn1ncc2c1NC(=O)CC2c1c(F)cccc1Cl` (centres undefined), with -5.11%; and `Cc1noc([C@@]23CCO[C@@H]2CCN(C(=O)CCC(C)C)C3)n1`, with 1.83%.
For the molecule `O=C(CCNCc1cccc(O)c1)N1CCc2sccc2C1`, the cytotoxicity at 70.5 h was -7.91%.
For `N#Cc1ccccc1N1CCCN(CC(=O)Nc2ccc(Cl)cn2)CC1`, the cytotoxicity at 70.5 h was -2.38%.
Turning to `CN(C)C(=O)CN1CCC2(CCN(S(C)(=O)=O)CC2)C1=O`, the cytotoxicity at 70.5 h was -0.161%.
With `Cn1nc(CNC(=O)NCc2ccc(Cl)cc2)c2c1CCOC2`, the cytotoxicity at 70.5 h is -0.247%.
Turning to `CNC(=O)C1(CCCc2ccccn2)CN(Cc2nccn2C)C1`, the cytotoxicity at 70.5 h is -9.75%.
Take `c1cnc(NC[C@@H]2CCC[C@@H]3CN(Cc4cccnc4)C[C@@H]32)nc1`: the cytotoxicity at 70.5 h was -2.09%.
As for `CC(NC(=O)NCCCn1cncn1)c1ccc2c(c1)OCCO2` (centres undefined), the cytotoxicity at 70.5 h is -7.07%.
With `C=C(C)CN(CC)C(=O)c1cc(F)ccc1N1CCN(C)CC1` the figure was -12.2%; with `Cc1n[nH]c2c1C(c1ccncc1)SCC(=O)N2` (centres undefined), 19.3%; with `COc1cccc2sc(N3CC(OC(C)=O)C3)nc12`, -11.2%.
For the molecule `COCCNc1nc2c(c(NCc3cnc(C)cn3)n1)CCNCC2`, the cytotoxicity at 70.5 h is -4.71%.
With `COC(=O)CNC(=O)c1nc(Br)sc1C(C)C` the figure was 42.9%.
On to `Cn1cc(CC2CC(=O)N(Cc3ccc(OC(F)F)cc3)C2=O)cn1` (centres undefined), for which the cytotoxicity at 70.5 h turned out to be 3.06%.
For the molecule `CN(Cc1cccnc1)C1CC2(CCN(c3ncccn3)CC2)C1`, the cytotoxicity at 70.5 h was -15.1%.
As for `O=C(O)C1(Oc2ccc3c(c2)OCO3)CCN(C2CCOCC2)CC1`, the cytotoxicity at 70.5 h was -14.1%.
Consider `Cc1ccnn1CCC(=O)N1CCCC[C@@]2(C)[C@@H]1CCC(=O)N2C`, for which the cytotoxicity at 70.5 h is -4.62%.
With `Cc1cc(C)n(CC(C)CNC(=O)NCc2csc(C)n2)n1` (centres undefined), the cytotoxicity at 70.5 h was determined as 42.1%.
For `O=C1NCC(C(=O)NCc2ccccc2CN2CCOCC2)N1` (centres undefined), the cytotoxicity at 70.5 h is -4.6%.
Consider `COCCNC(=O)Nc1ccc(-c2nc(C(C)C)no2)cc1`, for which the cytotoxicity at 70.5 h was -6.61%.
Regarding `CC(C)CCN1CC2(CCCN(C(=O)NCc3cccs3)C2)CCC1=O` (centres undefined), the cytotoxicity at 70.5 h was -2.43%.
As to `CCc1nc(C2CCCN2CC(=O)NCCc2ccsc2)no1` (centres undefined), the cytotoxicity at 70.5 h was 0.0583%.
In the case of `NCCCC(=O)NCC1(O)CCCN(c2ccnc3cccnc23)C1` (centres undefined), the cytotoxicity at 70.5 h is -4.51%.
As to `Cc1nc(CCNC(=O)NCc2cccc(N(C)C)n2)cs1`, the cytotoxicity at 70.5 h was -12.8%.
In the case of `CSCC[C@@H](CO)NC(=O)c1sc(-c2ccccc2Cl)nc1C`, the cytotoxicity at 70.5 h was -16.5%.
With `CCOc1ccc(NC(C)c2nnnn2-c2ccccc2)cc1CO` (centres undefined) the figure was -66.6%.
Consider `Nc1cc2c(nn1)CCN(C(=O)CCc1ccc3c(c1)OCO3)C2`, for which the cytotoxicity at 70.5 h was -6.15%.
For `O=C1COc2cc(C(=O)NS(=O)(=O)c3cccc(Cl)c3)ccc2N1`, the cytotoxicity at 70.5 h is -19.1%.
For `CSCC(=O)N1CCOC(c2nc(C)n[nH]2)C1` (centres undefined), the cytotoxicity at 70.5 h is -12.3%.
Consider `COCC1CN(c2ccncn2)Cc2cnn(CC3CCCC3)c21` (centres undefined), for which the cytotoxicity at 70.5 h was -11.3%.
Consider `O=C(N[C@@H]1CN(c2ncccn2)[C@@H]2CCCO[C@@H]21)c1cnccn1`, for which the cytotoxicity at 70.5 h was -1.73%.
As for `CCc1nc(C2CCCN2C(=O)c2ncoc2CC)no1` (centres undefined), the cytotoxicity at 70.5 h was -5.48%.
As to `CN(C(=O)NCc1ccncc1)C1CCN(c2ccccc2)C1=O` (centres undefined), the cytotoxicity at 70.5 h amounted to 11.5%.
On to `Cc1ccc(CN2CC[C@H]3C[C@H](C(=O)N4CCCO4)O[C@@H]3C2)o1`, for which the cytotoxicity at 70.5 h stood at 1.31%.
As for `COc1ccccc1CN1CC[C@]2(C[C@@H](OC)CO2)C1`, the cytotoxicity at 70.5 h was -4.33%.
Turning to `CCOCC1CN(C(=O)c2cccnc2)Cc2cnn(C)c21` (centres undefined), the cytotoxicity at 70.5 h was -9.4%.
As to `CC(C)n1nc(CN2CCOCC2)c2c1CN(C(=O)c1ccno1)C2`, the cytotoxicity at 70.5 h was -4.42%.
Turning to `COc1c(C)cnc(CNC(=O)CCOCc2ccccc2)c1C`, the cytotoxicity at 70.5 h is -3.15%.
With `Cc1cc(C2CCCN2C(=O)c2cnn(C)c2)on1` (centres undefined), the cytotoxicity at 70.5 h amounted to 14%.
Turning to `Cc1ncsc1C(=O)OCCN1CCCc2ccccc21`, the cytotoxicity at 70.5 h is -22.3%.
With `Cc1ccc(-c2nnc(NC(=O)c3ccn(C)c(=O)c3)[nH]2)s1`, the cytotoxicity at 70.5 h is -19.1%.
For the molecule `Cc1nc[nH]c1CN1CCCC12CCN(c1ccccn1)CC2`, the cytotoxicity at 70.5 h was -3.64%.
`Cc1cc(N2CCc3cnc(C)nc3C2)n2nc(C(F)(F)F)nc2n1`: the cytotoxicity at 70.5 h is -108%.
On to `CCCOc1ccc2c(c1)OCC(CNC1CCc3ncnn3C1)=C2` (centres undefined), for which the cytotoxicity at 70.5 h is -6.97%.
Consider `CC(=O)N1CCC2(CC1)COCCN2CCN(C)C`, for which the cytotoxicity at 70.5 h was -10.7%.
